The supplement of paper PMC10307832

Tests used:
Assay in all cases: relative viability (nuclei count vs DMSO), 5 days (fraction); higher = more cells survive
A-427 = system: A-427
Outline: (§1)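 Five library-drug doses in √10 steps were combined with a fixed anchor-drug dose, or a single drug was given alone, by pin tool to lung cancer cell lines in 1536-well plates the day after seeding. Nuclei were stained and counted after 5 days. Relative viability is the nuclei count in treated wells over that in vehicle wells, taken as the median of duplicate plates.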

COR-L 105 = system: COR-L 105
Outline: as §1

EPLC-272H = system: EPLC-272H
Outline: as §1

HCC-366 = system: HCC-366
Outline: as §1

HCC-78 = system: HCC-78
Outline: as §1

HOP-62 = system: HOP-62
Outline: as §1

LC-2-ad = system: LC-2-ad
Outline: as §1

LU99A = system: LU99A
Outline: as §1

LXF-289 = system: LXF-289
Outline: as §1

NCI-H1666 = system: NCI-H1666
Outline: as §1

NCI-H1792 = system: NCI-H1792
Outline: as §1

NCI-H1793 = system: NCI-H1793
Outline: as §1

NCI-H1915 = system: NCI-H1915
Outline: as §1

NCI-H1944 = system: NCI-H1944
Outline: as §1

NCI-H2009 = system: NCI-H2009
Outline: as §1

NCI-H2085 = system: NCI-H2085
Outline: as §1

NCI-H2170 = system: NCI-H2170
Outline: as §1

NCI-H358 = system: NCI-H358
Outline: as §1

NCI-H460 = system: NCI-H460
Outline: as §1

SK-LU-1 = system: SK-LU-1
Outline: as §1

SW 900 = system: SW 900
Outline: as §1

UMC-11 = system: UMC-11
Outline: as §1

`CCN(CC)CCCCNc1ncc2cc(-c3cc(OC)cc(OC)c3)c(NC(=O)NC(C)(C)C)nc2n1` + COc1cccc2cc(-c3nc([C@H]4CC[C@H](C(=O)O)CC4)n4ncnc(N)c34)[nH]c12 [OSI-027] (partner 0.5 µM) showed a relative viability (A-427; first compound 0.01 µM) of 0.457, a relative viability (A-427; first compound 0.03162 µM) of 0.435 and a relative viability (A-427; first compound 0.1 µM) of 0.427. The relative viability (A-427; first compound 0.3162 µM) was 0.364, the relative viability (A-427; first compound 1 µM) was 0.298 and the relative viability (COR-L 105; first compound 0.01 µM) was 0.704. For the same compound, the relative viability (COR-L 105; first compound 0.03162 µM) was 0.591, the relative viability (COR-L 105; first compound 0.1 µM) was 0.749 and the relative viability (COR-L 105; first compound 0.3162 µM) was 0.826. The relative viability (COR-L 105; first compound 1 µM) was 0.417, the relative viability (EPLC-272H; first compound 0.01 µM) was 0.272 and the relative viability (EPLC-272H; first compound 0.03162 µM) was 0.281. It also gave a relative viability (EPLC-272H; first compound 0.1 µM) of 0.234, a relative viability (EPLC-272H; first compound 0.3162 µM) of 0.28 and a relative viability (EPLC-272H; first compound 1 µM) of 0.301. For the same compound, the relative viability (HCC-366; first compound 0.01 µM) was 1.02, the relative viability (HCC-366; first compound 0.03162 µM) was 1.01 and the relative viability (HCC-366; first compound 0.1 µM) was 1.2. The relative viability (HCC-366; first compound 0.3162 µM) was 1.06, the relative viability (HCC-366; first compound 1 µM) was 1.24 and the relative viability (HCC-78; first compound 0.01 µM) was 0.36. It also gave a relative viability (HCC-78; first compound 0.03162 µM) of 0.381, a relative viability (HCC-78; first compound 0.1 µM) of 0.468 and a relative viability (HCC-78; first compound 0.3162 µM) of 0.349. For the same compound, the relative viability (HCC-78; first compound 1 µM) was 0.357, the relative viability (HOP-62; first compound 0.01 µM) was 0.89 and the relative viability (HOP-62; first compound 0.03162 µM) was 0.873. It also gave a relative viability (HOP-62; first compound 0.1 µM) of 1.12, a relative viability (HOP-62; first compound 0.3162 µM) of 1.11 and a relative viability (HOP-62; first compound 1 µM) of 0.771. For the same compound, the relative viability (LC-2-ad; first compound 0.01 µM) was 0.776, the relative viability (LC-2-ad; first compound 0.03162 µM) was 1.05 and the relative viability (LC-2-ad; first compound 0.1 µM) was 0.909. It also gave a relative viability (LC-2-ad; first compound 0.3162 µM) of 0.854, a relative viability (LC-2-ad; first compound 1 µM) of 0.75 and a relative viability (LU99A; first compound 0.01 µM) of 0.292. The relative viability (LU99A; first compound 0.03162 µM) was 0.259, the relative viability (LU99A; first compound 0.1 µM) was 0.309 and the relative viability (LU99A; first compound 0.3162 µM) was 0.291. For the same compound, the relative viability (LU99A; first compound 1 µM) was 0.302, the relative viability (LXF-289; first compound 0.01 µM) was 0.825 and the relative viability (LXF-289; first compound 0.03162 µM) was 0.823. The relative viability (LXF-289; first compound 0.1 µM) was 0.973, the relative viability (LXF-289; first compound 0.3162 µM) was 0.812 and the relative viability (LXF-289; first compound 1 µM) was 0.715. The relative viability (NCI-H1666; first compound 0.01 µM) was 0.896, the relative viability (NCI-H1666; first compound 0.03162 µM) was 0.877 and the relative viability (NCI-H1666; first compound 0.1 µM) was 0.817. The relative viability (NCI-H1666; first compound 0.3162 µM) was 1.08, the relative viability (NCI-H1666; first compound 1 µM) was 0.851 and the relative viability (NCI-H1792; first compound 0.01 µM) was 0.602. It also gave a relative viability (NCI-H1792; first compound 0.03162 µM) of 0.783, a relative viability (NCI-H1792; first compound 0.1 µM) of 0.706 and a relative viability (NCI-H1792; first compound 0.3162 µM) of 0.723. For the same compound, the relative viability (NCI-H1792; first compound 1 µM) was 0.523, the relative viability (NCI-H1793; first compound 0.01 µM) was 0.238 and the relative viability (NCI-H1793; first compound 0.03162 µM) was 0.253. It also gave a relative viability (NCI-H1793; first compound 0.1 µM) of 0.318, a relative viability (NCI-H1793; first compound 0.3162 µM) of 0.307 and a relative viability (NCI-H1793; first compound 1 µM) of 0.206. It also gave a relative viability (NCI-H1915; first compound 0.01 µM) of 0.377, a relative viability (NCI-H1915; first compound 0.03162 µM) of 0.645 and a relative viability (NCI-H1915; first compound 0.1 µM) of 0.775. The relative viability (NCI-H1915; first compound 0.3162 µM) was 0.721, the relative viability (NCI-H1915; first compound 1 µM) was 0.643 and the relative viability (NCI-H1944; first compound 0.01 µM) was 0.417. It also gave a relative viability (NCI-H1944; first compound 0.03162 µM) of 0.449, a relative viability (NCI-H1944; first compound 0.1 µM) of 0.437 and a relative viability (NCI-H1944; first compound 0.3162 µM) of 0.406. For the same compound, the relative viability (NCI-H1944; first compound 1 µM) was 0.351, the relative viability (NCI-H2009; first compound 0.01 µM) was 0.678 and the relative viability (NCI-H2009; first compound 0.03162 µM) was 0.669. For the same compound, the relative viability (NCI-H2009; first compound 0.1 µM) was 0.642, the relative viability (NCI-H2009; first compound 0.3162 µM) was 0.675 and the relative viability (NCI-H2009; first compound 1 µM) was 0.604. It also gave a relative viability (NCI-H2085; first compound 0.01 µM) of 0.71, a relative viability (NCI-H2085; first compound 0.03162 µM) of 0.759 and a relative viability (NCI-H2085; first compound 0.1 µM) of 0.867. For the same compound, the relative viability (NCI-H2085; first compound 0.3162 µM) was 0.803, the relative viability (NCI-H2085; first compound 1 µM) was 0.725 and the relative viability (NCI-H2170; first compound 0.01 µM) was 0.768. The relative viability (NCI-H2170; first compound 0.03162 µM) was 0.67, the relative viability (NCI-H2170; first compound 0.1 µM) was 0.71 and the relative viability (NCI-H2170; first compound 0.3162 µM) was 0.79. The relative viability (NCI-H2170; first compound 1 µM) was 0.75, the relative viability (NCI-H358; first compound 0.01 µM) was 0.791 and the relative viability (NCI-H358; first compound 0.03162 µM) was 0.803. For the same compound, the relative viability (NCI-H358; first compound 0.1 µM) was 1.12, the relative viability (NCI-H358; first compound 0.3162 µM) was 0.996 and the relative viability (NCI-H358; first compound 1 µM) was 0.694. The relative viability (NCI-H460; first compound 0.01 µM) was 0.879, the relative viability (NCI-H460; first compound 0.03162 µM) was 0.677 and the relative viability (NCI-H460; first compound 0.1 µM) was 0.859. The relative viability (NCI-H460; first compound 0.3162 µM) was 0.815, the relative viability (NCI-H460; first compound 1 µM) was 0.291 and the relative viability (SK-LU-1; first compound 0.01 µM) was 0.412. The relative viability (SK-LU-1; first compound 0.03162 µM) was 0.377, the relative viability (SK-LU-1; first compound 0.1 µM) was 0.33 and the relative viability (SK-LU-1; first compound 0.3162 µM) was 0.341. The relative viability (SK-LU-1; first compound 1 µM) was 0.219, the relative viability (SW 900; first compound 0.01 µM) was 0.657 and the relative viability (SW 900; first compound 0.03162 µM) was 0.592. For the same compound, the relative viability (SW 900; first compound 0.3162 µM) was 0.634, the relative viability (SW 900; first compound 1 µM) was 0.402 and the relative viability (UMC-11; first compound 0.01 µM) was 0.508. For the same compound, the relative viability (UMC-11; first compound 0.03162 µM) was 0.473, the relative viability (UMC-11; first compound 0.1 µM) was 0.481 and the relative viability (UMC-11; first compound 0.3162 µM) was 0.485. The relative viability (UMC-11; first compound 1 µM) was 0.443.
